For data set [1], the target named is beta amyloid (1-42) (Homo sapiens, UniProt P05067). Kind of data set: Inhibitory activity against beta amyloid fibril formation (ThT fluorescence). In kind it is biochemical. The following applies: for remaining activity at 10 µM: compound 10 μM, beta amyloid (1-42) 25 μM, 1 hr room temperature, beta amyloid alone (control) = 100. Here is the method: The compounds of the present invention were assayed for inhibitory activity against the formation of beta amyloid fibrils as a function of ThT fluorescence intensity as follows. Beta amyloid (1-42) and each of the compounds of Examples 1 to 27 were dissolved in DMSO and diluted with PBS (phosphate-buffered saline, pH 7.4). The final concentrations of beta amyloid (1-42) (control) and each of the compounds of Examples 1 to 27 were set at 25 μM and 10 μM, respectively. The dilutions were incubated at room temperature for 1 hr before a solution of thioflavin T (ThT, 5 μM, pH 8.5) in glycin-NaOH buffer was added thereto. Fluorescence was measured at 450 nm for excitation (slit 10 nm) and […] for emission (slit 10 nm) on 96-well microplates using a multilabel fluorescence counter.
Chain of beta amyloid (1-42) (P05067 672-713 limits assumed): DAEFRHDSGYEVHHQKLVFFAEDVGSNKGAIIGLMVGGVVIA

For data set [2], the system named is HT-22 cells. Kind of data set: Cytotoxicity in HT-22 cell (MTT). In kind it is cell-based, murine. The following applies: compound 25 μM, 18 hrs. Here is the method: The following experiment was performed with HT-22 cells in order to examine the cytotoxicity of the compounds of the Examples in accordance with the present invention.
(§1) The murine hippocampal neuronal cell line HT-22 was incubated at 37° C. in DMEM (Dulbecco's Modified Eagle's Medium) supplemented with 10% FBS (fetal bovine serum) and 1% penicillin/streptomycin in a 5% CO2 incubator. Before testing, HT-22 cells were seeded at a density of 5×10^3 cells/well onto 96-well plates containing serum-free DMEM and incubated for 1 hr. Afterwards, each of the compounds of Examples 1 to 27 was added at a concentration of 25 μM to each well before incubation for 18 hrs. 5 mg/ml MTT (3-(4,5-dimethyl-2-thiozolyl)-2,5-diphenyl-2H-tetrazolium bromide) solution was added in an amount of 15 μl per well and incubated for 4 hrs. A solubilization solution (10% SDS, 50% dimethylformamide, pH 4.7) was added in an amount of 100 μl to each well, followed by incubation for 18 hrs. Absorbance at 570 nm/630 nm was read on a microplate reader.

For data set [3], the system named is HT-22 cells incubated with beta amyloid (Aβ25-35). The data set can be described thus: Alleviating effect on beta amyloid toxicity in HT-22 cells (MTT). In kind it is cell-based, murine. The following applies: Mus musculus, compound pre-incubated 1 hr, then 25 μM beta amyloid (Aβ25-35) for 18 hrs, Aβ25-35 line = toxin alone, read-out: Cell Survival (%). How it is done:
as §1
The following experiment was performed in order to examine the ability of the compounds of the Examples in accordance with the present invention to alleviate beta amyloid toxicity. HT-22 cells were cultured and incubated with the compounds of Examples 1 to 27 for 1 hr in the same manner as in Example 2. Cell necrosis was induced by beta amyloid toxicity. For this, the cells were incubated with 25 μM of beta amyloid (Aβ25-35) for 18 hrs. Subsequently, a 5 mg/ml MTT solution was added in an amount of 15 μl to each well, followed by incubation for 4 hrs. Then, the cells were again incubated for 18 hrs with 100 μl/well of the solubilization solution. Absorbance at 570 nm/630 nm was read on a microplate reader.

One may read the remaining activity as the signal under treatment as a percentage of the control signal.

Turning to `Oc1cccc(/C=C/c2cc(/C=C/c3cccc(O)c3)ncn2)c1` [Ex. 5, (E,E)-4,6-bis(3′-hydroxystyryl)pyrimidine], the remaining activity at 10 µM in data set [1] worked out at 85.9 ± 19.7%. For the same molecule, in data set [2], the “Cell Survival (%)” value stood at 142.5 ± 5.6%. For the same molecule, in data set [3], the viability at 25 µM stood at 43.5 ± 13.4%.

On to `CSc1nc(/C=C/c2ccc(N(C)C)c(O)c2)cc(/C=C/c2ccc(N(C)C)c(O)c2)n1` [Ex. 19, 2-methylthio-(E,E)-4,6-bis[3′-hydroxy-4′-(N,N-dimethylamino)styryl]pyrimidine], for which, in data set [1], the remaining activity at 10 µM was determined as 11.2 ± 4.2%. Further, the “Cell Survival (%)” value in data set [2] came out at 85.3 ± 8.1%. Further, in data set [3], the viability at 25 µM is 69.7 ± 0.4%.

On to `Oc1ccc(/C=C/c2cc(O)cc(/C=C/c3ccc(O)cc3)c2)cc1` [Ex. 22, (E,E)-3,5-bis(4′-hydroxystyryl)phenol], for which the remaining activity at 10 µM in data set [1] was 19.3 ± 1.1%. Further, the “Cell Survival (%)” value in data set [2] was found to be 37.4 ± 4.7%. Further, the viability at 25 µM in data set [3] was 50.6 ± 10.1%.

Consider `COc1nc(/C=C/c2ccc(OC)c(O)c2)cc(/C=C/c2ccc(OC)c(O)c2)n1` [Ex. 11, 2-methoxy-(E,E)-4,6-bis(3′-hydroxy-4′-methoxystyryl)pyrimidine], for which, in data set [1], the remaining activity at 10 µM came out at 45 ± 9.2%. Moreover, in data set [2], the “Cell Survival (%)” value came out at 98.4 ± 2.7%. The viability at 25 µM in data set [3] turned out to be 66.2 ± 11.5%.

Take `COc1nc(/C=C/c2ccc(O)cc2)cc(/C=C/c2ccc(O)cc2)n1` [Ex. 8, 2-methoxy-(E,E)-4,6-bis(4′-hydroxystyryl)pyrimidine]: in data set [1], the remaining activity at 10 µM was 32.6 ± 7.3%. Besides, the “Cell Survival (%)” value in data set [2] was determined as 101.2 ± 31.8%. Moreover, in data set [3], the viability at 25 µM came out at 100 ± 7%.

As to `Oc1cccc(/C=C/c2cc(O)cc(/C=C/c3cccc(O)c3)c2)c1` [Ex. 23, (E,E)-3,5-bis(3′-hydroxystyryl)phenol], the remaining activity at 10 µM in data set [1] was 92.9 ± 12.4%. The “Cell Survival (%)” value in data set [2] came out at 59.2 ± 15.4%. In addition, the viability at 25 µM in data set [3] came to 47.7 ± 11.1%.

As for `CN(C)c1cc(/C=C/c2cccc(/C=C/c3ccc(O)c(N(C)C)c3)c2)ccc1O` [Ex. 20, (E,E)-1,3-bis[4′-hydroxy-3′-(N,N-dimethylamino)styryl]benzene], the remaining activity at 10 µM in data set [1] amounted to 36.1 ± 10.1%. In addition, the “Cell Survival (%)” value in data set [2] is 95.7 ± 8.3%. Further, the viability at 25 µM in data set [3] was found to be 45.8 ± 9.1%.

For `COc1ccc(/C=C/c2cc(/C=C/c3ccc(OC)c(O)c3)nc(SC)n2)cc1O` [Ex. 17, 2-methylthio-(E,E)-4,6-bis(3′-hydroxy-4′-methoxystyryl)pyrimidine], in data set [1], the remaining activity at 10 µM stood at 24.8 ± 11.1%. In addition, in data set [2], the “Cell Survival (%)” value came out at 78.8 ± 9.3%. Also, the viability at 25 µM in data set [3] came out at 78.3 ± 0.4%.

With `COc1nc(/C=C/c2ccc(N(C)C)c(O)c2)cc(/C=C/c2ccc(N(C)C)c(O)c2)n1` [Ex. 13, 2-methoxy-(E,E)-4,6-bis[3′-hydroxy-4′-(N,N-dimethylamino)styryl]pyrimidine], the “Inhibitory activity against fibril formation (in words)” value in data set [1] (Table 3) is “remarkable inhibitory activity”. Moreover, the remaining activity at 10 µM in data set [1] was 9.6 ± 3.7%. Also, the “Cell Survival (%)” value in data set [2] was found to be 101.4 ± 2.5%. For the same molecule, the viability at 25 µM in data set [3] came to 67.4 ± 5.1%.

For the molecule `Oc1ccc(/C=C/c2cc(/C=C/c3ccc(O)cc3)ncn2)cc1` [Ex. 4, (E,E)-4,6-bis(4′-hydroxystyryl)pyrimidine], the remaining activity at 10 µM in data set [1] amounted to 35.7 ± 7%. In data set [2], the “Cell Survival (%)” value stood at 104.2 ± 7.1%. For the same molecule, the viability at 25 µM in data set [3] turned out to be 81 ± 1.2%.

`CSc1nc(/C=C/c2cccc(O)c2)cc(/C=C/c2cccc(O)c2)n1` [Ex. 15, 2-methylthio-(E,E)-4,6-bis(3′-hydroxystyryl)pyrimidine]: in data set [1], the remaining activity at 10 µM is 153 ± 16.3%. Further, the “Cell Survival (%)” value in data set [2] is 43.7 ± 6.6%. Besides, the viability at 25 µM in data set [3] was 39.6 ± 0.4%.

In the case of `COc1nc(/C=C/c2cccc(O)c2)cc(/C=C/c2cccc(O)c2)n1` [Ex. 9, 2-methoxy-(E,E)-4,6-bis(3′-hydroxystyryl)pyrimidine], the remaining activity at 10 µM in data set [1] is 129 ± 11.6%. Besides, the “Cell Survival (%)” value in data set [2] stood at 45.9 ± 4.2%. For the same molecule, the viability at 25 µM in data set [3] amounted to 47.7 ± 3.3%.

As for `COc1ccc(/C=C/c2cccc(/C=C/c3ccc(OC)c(O)c3)c2)cc1O` [Ex. 3, (E,E)-1,3-Bis(3′-hydroxy-4′-methoxystyryl)benzene], in data set [1], the remaining activity at 10 µM is 32.1 ± 1.1%. Besides, the “Cell Survival (%)” value in data set [2] was 69.5 ± 4.2%. For the same molecule, the viability at 25 µM in data set [3] was determined as 54.7 ± 5.3%.

For `COc1cc(/C=C/c2cc(O)cc(/C=C/c3ccc(O)c(OC)c3)c2)ccc1O` [Ex. 24, (E,E)-3,5-bis(4′-hydroxy-3′-methoxystyryl)phenol], in data set [1], the remaining activity at 10 µM worked out at 21 ± 2.4%. Moreover, the “Cell Survival (%)” value in data set [2] is listed as 80.9 ± 13.1%. Besides, in data set [3], the viability at 25 µM was determined as 39.9 ± 9.5%.

With `COc1cc(/C=C/c2cc(/C=C/c3ccc(O)c(OC)c3)nc(SC)n2)ccc1O` [Ex. 16, 2-methylthio-(E,E)-4,6-bis(4′-hydroxy-3′-methoxystyryl)pyrimidine], the remaining activity at 10 µM in data set [1] is 32.4 ± 12.5%. For the same molecule, in data set [2], the “Cell Survival (%)” value was determined as 79.0 ± 7.9%. In addition, in data set [3], the viability at 25 µM stood at 49 ± 4.2%.

On to `COc1nc(/C=C/c2ccc(O)c(N(C)C)c2)cc(/C=C/c2ccc(O)c(N(C)C)c2)n1` [Ex. 12, 2-methoxy-(E,E)-4,6-bis[4′-hydroxy-3′-(N,N-dimethylamino)styryl]pyrimidine], for which the remaining activity at 10 µM in data set [1] stood at 25.9 ± 7.3%. Also, the “Cell Survival (%)” value in data set [2] worked out at 96.6 ± 13.7%. Further, the viability at 25 µM in data set [3] amounted to 59 ± 5.7%.

As for `CN(C)c1ccc(/C=C/c2cc(O)cc(/C=C/c3ccc(N(C)C)c(O)c3)c2)cc1O` [Ex. 27, (E,E)-3,5-bis[3′-hydroxy-4′-(N,N-dimethylamino)styryl]phenol], the remaining activity at 10 µM in data set [1] was 16.7 ± 0.7%. Besides, the “Cell Survival (%)” value in data set [2] amounted to 64.4 ± 4.2%. Also, in data set [3], the viability at 25 µM worked out at 50.5 ± 3.9%.

In the case of `COc1ccc(/C=C/c2cc(O)cc(/C=C/c3ccc(OC)c(O)c3)c2)cc1O` [Ex. 25, (E,E)-3,5-bis(3′-hydroxy-4′-methoxystyryl)phenol], in data set [1], the remaining activity at 10 µM was determined as 15.5 ± 3.8%. For the same molecule, the “Cell Survival (%)” value in data set [2] is 73.5 ± 14.1%. Also, the viability at 25 µM in data set [3] came to 43.2 ± 10%.

Turning to `CN(C)c1ccc(/C=C/c2cccc(/C=C/c3ccc(N(C)C)c(O)c3)c2)cc1O` [Ex. 21, (E,E)-1,3-bis[3′-hydroxy-4′-(N,N-dimethylamino)styryl]benzene], in data set [1], the remaining activity at 10 µM turned out to be 44 ± 8.3%. Also, the “Cell Survival (%)” value in data set [2] came out at 100.8 ± 7.6%. In addition, in data set [3], the viability at 25 µM turned out to be 52.8 ± 7.2%.

Turning to `CSc1nc(/C=C/c2ccc(O)cc2)cc(/C=C/c2ccc(O)cc2)n1` [Ex. 14, 2-methylthio-(E,E)-4,6-bis(4′-hydroxystyryl)pyrimidine], in data set [1], the remaining activity at 10 µM came to 32.6 ± 7.4%. In data set [2], the “Cell Survival (%)” value is 65.3 ± 6.0%. Also, in data set [3], the viability at 25 µM is 34.2 ± 4%.

Regarding `CSc1nc(/C=C/c2ccc(O)c(N(C)C)c2)cc(/C=C/c2ccc(O)c(N(C)C)c2)n1` [Ex. 18, 2-methylthio-(E,E)-4,6-bis[4′-hydroxy-3′-(N,N-dimethylamino)styryl]pyrimidine], the remaining activity at 10 µM in data set [1] was 21.4 ± 10.3%. The “Cell Survival (%)” value in data set [2] is 77.3 ± 15.1%. The viability at 25 µM in data set [3] was found to be 50.9 ± 5.7%.

For `COc1nc(/C=C/c2ccc(O)c(OC)c2)cc(/C=C/c2ccc(O)c(OC)c2)n1` [Ex. 10, 2-methoxy-(E,E)-4,6-bis(4′-hydroxy-3′-methoxystyryl)pyrimidine], the remaining activity at 10 µM in data set [1] was 32 ± 11.6%. Further, the “Cell Survival (%)” value in data set [2] was found to be 75.2 ± 12.5%. Moreover, the viability at 25 µM in data set [3] amounted to 71.7 ± 14.8%.

For `CN(C)c1cc(/C=C/c2cc(O)cc(/C=C/c3ccc(O)c(N(C)C)c3)c2)ccc1O` [Ex. 26, (E,E)-3,5-bis[4′-hydroxy-3′-(N,N-dimethylamino)styryl]phenol], in data set [1], the remaining activity at 10 µM amounted to 25.8 ± 5.8%. For the same molecule, the “Cell Survival (%)” value in data set [2] was 66.0 ± 12.1%. In addition, the viability at 25 µM in data set [3] is 47.4 ± 0.6%.

The values above are taken from patent US8410116B2, “Bis(styryl)pyrimidine or bis(styryl)benzene compounds, pharmaceutically acceptable salts thereof, preparation method thereof, and pharmaceutical composition for prevention or treatment of diseases featuring amyloids comprising the same as an active ingredient” (Korea Institute of Science and Technology, priority 2009, dated 2013).
